# Laboratory results published in BindingDB's records for doi:10.7270/Q2TX3CTT (Broad Institute, 2010).
# Biological target: Glycogen synthase kinase-3 beta (Homo sapiens, UniProt P49841)
# Assay: GSK3beta kinase inhibitor potency, dose response, biochemical, luminescence, cell-free homogeneous, retest (AID 434954)
# Sequence of Glycogen synthase kinase-3 beta (P49841 whole entry): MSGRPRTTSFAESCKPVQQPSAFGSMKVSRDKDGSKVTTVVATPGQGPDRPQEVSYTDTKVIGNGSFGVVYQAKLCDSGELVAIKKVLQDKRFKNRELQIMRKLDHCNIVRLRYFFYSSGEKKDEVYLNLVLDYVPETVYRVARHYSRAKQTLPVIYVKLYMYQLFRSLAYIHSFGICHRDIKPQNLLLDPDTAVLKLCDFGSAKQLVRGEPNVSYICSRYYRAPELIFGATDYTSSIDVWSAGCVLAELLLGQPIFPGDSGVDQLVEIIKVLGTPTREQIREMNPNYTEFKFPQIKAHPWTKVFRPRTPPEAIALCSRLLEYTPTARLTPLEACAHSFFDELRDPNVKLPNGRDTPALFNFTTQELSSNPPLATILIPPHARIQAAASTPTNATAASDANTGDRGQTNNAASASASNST
row,SMILES,EC50
1,CN(CCO)S(=O)(=O)c1ccc2c(c1)C(=NNC(N)=O)c1cc(S(=O)(=O)N(C)CCO)ccc1-2 [MLS000766695],> 300 µM
2,O=C(NNC(=O)C1[C@H]2CCCC[C@@H]12)c1ccc(=O)oc1 (stereo not given in full) [MLS000768334],> 300 µM
3,O=C1N=C(Nc2ccccc2)SC1=Cc1cccnc1 [MLS000768418],> 300 µM
4,COc1ccc(OC)c(C=NNC(=O)CCc2c(C)n[nH]c2C)c1 [MLS000769019],> 300 µM
5,Cc1ccc(Nc2nc(-c3ccncc3)nc3ccccc23)cc1 [MLS000769531],> 300 µM
6,Nc1nc(NCC2CCCO2)nc(Nc2ccccc2F)c1[N+](=O)[O-] (stereo not given) [MLS000769541],2.33 µM
7,Cc1nn(-c2ccccc2)c2c1cc1c(=O)n(C)c(=O)nc-1n2-c1ccccc1F [MLS000769580],106 µM
8,Nc1nc(NCCCN2CCOCC2)nc(Nc2cccc(Cl)c2)c1[N+](=O)[O-] [MLS000769815],4.25 µM
9,Nc1nc(NCCCN2CCOCC2)nc(Nc2ccccc2F)c1[N+](=O)[O-] [MLS000769816],1.27 µM
10,Nc1nc(NCc2ccco2)nc(NC2CCCCC2)c1[N+](=O)[O-] [MLS000769818],> 300 µM
11,O=C1CN(c2nc(-c3cccnc3)nc3sc4c(c23)CCCC4)CCN1 [MLS000772211],24.8 µM
12,CCOC(=O)C1CCN(c2cc(C)nc3ccc(OC)cc23)CC1 [MLS000772886],> 300 µM
13,CN(C)S(=O)(=O)c1cc(NC(=O)CN2CCN(c3ccc(O)cc3)CC2)ccc1Cl [MLS000774170],> 300 µM
14,O=C(O)/C=C/c1cn(-c2ccccc2)nc1-c1cccc([N+](=O)[O-])c1 [MLS000774824],> 300 µM
15,O=C(O)c1cccc(-c2ccc(CN=Nc3ccc([N+](=O)[O-])cc3)o2)c1 [MLS000777078],> 300 µM
16,COc1cc(C=C2SC(Nc3ccc(O)cc3)=NC2=O)ccc1O [MLS000778276],23.3 µM
17,CCN(CC)Cc1c(O)ccc2c1O/C(=C\C=C\c1ccccc1)C2=O [MLS000779120],> 300 µM
18,CC1(C)CC(CCNC(=O)CCl)(c2ccccc2)CCO1 (stereo not given) [MLS000779552],> 300 µM
19,COc1cc(/C=N/NC(=O)c2ccccc2F)ccc1Oc1ccc([N+](=O)[O-])cn1 [MLS000779573],> 300 µM
20,COc1cc(/C=N/NC(=O)c2cccc(Cl)c2)ccc1Oc1ccc([N+](=O)[O-])cn1 [MLS000779574],> 300 µM
21,O=c1c2c3c(sc2n2c(S)nnc2n1-c1ccccc1)CCC3 [MLS000779668],34 µM
22,COC(=O)C1=C(C)N(Cc2ccccc2)C(NCc2ccc(OC)cc2)=N[C@H]1c1cccc(F)c1 [MLS000829932],> 300 µM
23,CSc1nc(-c2cccs2)c(C#N)c(=O)[nH]1 [MLS000849828],> 300 µM

row,SMILES,EC50
1,CC(=O)Nc1ccc(S(=O)(=O)Nc2ccc3c(c2)OCCO3)cc1Cl [MLS000850184],> 300 µM
2,O=C(CCc1ccccc1)Nc1cccc([N+](=O)[O-])c1 [MLS000856399],> 300 µM
3,O=[N+]([O-])c1cc(Cl)ccc1N1CCCCC1 [MLS000856435],> 300 µM
4,COc1cccc(Nc2ncc(C#N)c(N)n2)c1 [MLS000858965],14.3 µM
5,COc1cccc(C(=O)C(C#N)=C(SC)SC)c1 [MLS000859112],> 300 µM
6,Cc1nccc(-c2cccc(NC(=O)c3ccccc3Cl)c2)n1 [MLS000859188],> 300 µM
7,CSc1nnnn1-c1c(C)cccc1C [MLS000861118],> 300 µM
8,CC(C)CCSc1nnc(N)s1 [MLS000861787],> 300 µM
9,Cc1csc2c(=O)n(CCO)c(=O)[nH]c12 [MLS000861875],> 300 µM
10,CN1CCc2c(sc(NC(=O)Cc3ccccc3)c2C(N)=O)C1 [MLS000879155],> 300 µM
11,CC(=O)N1CCc2c(sc(NC(=O)Cc3ccccc3)c2C(N)=O)C1 [MLS000879211],24.4 µM
12,O=C(Nc1cccc(F)c1)c1cccc2c1C(=O)N(C1CCCCC1)C2 [MLS000912875],> 300 µM
13,COc1ccc(C(=O)N/C(=C\c2ccco2)C(=O)NCCN2CCOCC2)cc1 [MLS000923740],> 300 µM
14,Nc1nonc1-n1nnc(C(=O)NN=Cc2cccc(F)c2)c1CN1CCCC1 [MLS000948239],> 300 µM
15,Nc1nonc1-n1nnc(C(=O)NN=Cc2ccc(Cl)cc2Cl)c1CN1CCCCC1 [MLS000950038],> 300 µM
16,Nc1nonc1-n1nnc(C(=O)NN=Cc2cccc(Cl)c2)c1CN1CCCCCC1 [MLS000950585],4 µM
17,COc1cccc2cc(C(=O)Oc3ccccc3)c(=O)oc12 [MLS000999696],> 300 µM
18,Cc1[nH]nc2c1C(c1cccs1)C1C(=O)CCCC1=N2 (stereo not given) [MLS001003570],10.6 µM
19,CCOc1ccc(CN=Nc2ccccn2)cc1OC [MLS001005584],> 300 µM
20,Cc1ccc(C(=O)NN=C2CCCc3ccccc32)c(C)c1 [MLS001005817],> 300 µM
21,c1ccc(-c2nc(NCCCn3ccnc3)c3ccccc3n2)cc1 [MLS001007021],33.6 µM
22,CCc1nnc(NC(=O)c2ccc3c(=O)n4c(nc3c2)CCCCC4)s1 [MLS001007070],> 300 µM
23,Cc1nc(N2CCOCC2)nc(N2CCCCC2C)c1[N+](=O)[O-] (stereo not given) [MLS001012395],> 300 µM

row,SMILES,EC50
1,O=c1c2ccccc2cnn1-c1nc2ccccc2[nH]1 [MLS001017304],25.1 µM
2,O=C(COC(=O)c1cc(=O)c2ccccc2o1)NC1CCCC1 [MLS001017387],> 300 µM
3,COc1ccc(-c2nn(-c3ccccc3)cc2/C=C/C(=O)N2CCOCC2)cc1OC [MLS001017845],> 300 µM
4,O=C(Nc1ccccc1)Nc1ncc([N+](=O)[O-])s1 [MLS001018461],27 µM
5,COc1ccc(Nc2nc(-c3ccccc3)c(C(=O)Nc3cccnc3)s2)cc1 [MLS001018742],> 300 µM
6,O=C(CCCC1=Nc2ccccc2S(=O)(=O)N1)Nc1ccccc1 [MLS001028511],> 300 µM
7,CCOC(=O)c1c(S(=O)(=O)NCC(=O)Nc2ccccc2)c(C)n(C)c1C [MLS001028712],> 300 µM
8,CCOc1ccc(CNC(=O)C2CCN(c3nnc(C)c4c(C)n(-c5ccc(C)cc5)nc34)CC2)cc1 [MLS001028751],> 300 µM
9,Cc1ccc(-n2nc3c(N4CCC(C(=O)N5CCCCCC5)CC4)nnc(C)c3c2C)cc1 [MLS001028811],> 300 µM
10,CCN1CCCC1CNC(=O)c1ccc2c(c1)NC(=O)/C(=C\c1ccc(OC)c(OC)c1)S2 (stereo not given) [MLS001030689],6.6 µM
11,COc1cccc(/C=C2/Sc3ccc(C(=O)NCCN4CCCCCC4)cc3NC2=O)c1 [MLS001030753],94.6 µM
12,Fc1cccc(Nc2ncnc3n[nH]cc23)c1 [MLS001033418],32.4 µM
13,CC(CC(=O)Nc1ccc2c(c1)OCO2)=NNC(=O)c1ccc(N)cc1 [MLS001042207],> 300 µM
14,CC(C)CC(=O)Nc1ncc([N+](=O)[O-])s1 [MLS001043214],4.86 µM
15,O=C1N=C(N2CCc3ccccc3C2)S/C1=C\c1ccc(O)cc1 [MLS001043290],> 300 µM
16,CCCCCCCCCCCCC(=O)CCCCC(=O)O [MLS001049131],> 300 µM
17,COc1cc(OC)cc(C(=O)NCC2CCCN(C(=O)c3csc(C)n3)C2)c1 (stereo not given) [MLS001072180],> 300 µM
18,C=CCC1(CC=C)CCCN1C(=O)C1CCC(=O)N(CCc2ccc(OC)cc2)C1 (stereo not given) [MLS001072450],> 300 µM
19,Nc1nonc1-n1nnc(C(=O)NN=Cc2ccccc2F)c1CN1CCc2ccccc21 [MLS001075096],22.5 µM
20,CC(=NNC(=O)c1nnn(-c2nonc2N)c1CN1CCC(C)CC1)c1cccc(Br)c1 [MLS001075097],25.4 µM
21,Nc1nonc1-n1nnc(C(=O)NN=Cc2ccc(OCc3ccccc3)cc2)c1CN1CCCCC1 [MLS001075115],8.87 µM
22,CCN1CCN(C(=O)Cn2nc(C)n3c(cc4c(OC)cccc43)c2=O)CC1 [MLS001076371],> 300 µM
23,COc1cccc2c1cc1c(=O)n(CC(=O)NCCCc3ccccc3)nc(C)n12 [MLS001076397],> 300 µM

row,SMILES,EC50
1,CC(=NNC(=O)c1nnn(-c2nonc2N)c1CN1CCc2ccccc21)c1ccccc1O [MLS001076839],> 300 µM
2,CC(=O)Nc1c(-c2ccccc2)nc2ccc(Cl)cn12 [MLS001077169],> 300 µM
3,Cc1ccc(NC(=O)c2ccc(C)c(S(=O)(=O)N3CCCCC3)c2)nc1 [MLS001078236],> 300 µM
4,Cc1cc(CN(C)C(=O)c2ccc(OC3CCN(CCc4ccccc4)CC3)cc2)on1 [MLS001100796],> 300 µM
5,O=C(NCc1ccncc1)C1CCC(=O)N(CCc2ccc(Cl)cc2)C1 (stereo not given) [MLS001100847],> 300 µM
6,COc1cccc(NC(=O)CN(C2=NC3CS(=O)(=O)CC3S2)c2cccc(C)c2)c1 (stereo not given) [MLS001110132],> 300 µM
7,CCc1nn(CC(=O)NCCN2CCN(C)CC2)c(=O)c2cc3c(OC)cccc3n12 [MLS001110984],> 300 µM
8,CCCN1CCN(CCCNC(=O)Cn2nc(C)n3c(cc4cc(OC)ccc43)c2=O)CC1 [MLS001110985],> 300 µM
9,CCCN1CCN(CCCNC(=O)c2ccc3c(c2)NC(=O)c2ccccc2S3)CC1 [MLS001110989],> 300 µM
10,Cc1cc(=O)nc2c3ccccc3n(CC(=O)NCCCN3CCCCC3C)n12 (stereo not given) [MLS001115992],> 300 µM
11,COc1ccc(C)cc1NC(=O)CN(C)S(=O)(=O)c1ccc2c(c1)CC(C)N2C(C)=O (stereo not given) [MLS001122753],> 300 µM
12,COc1ccc(NC(=O)c2cccc(N3C(=O)c4cccc([N+](=O)[O-])c4C3=O)c2)cc1 [MLS001125857],> 300 µM
13,COc1cc(SC)ccc1C(=O)OCC(=O)NCCNC(=O)COC(=O)c1ccc(SC)cc1OC [MLS001129814],> 300 µM
14,COc1ccc2nc(NC(=O)CSc3nnc(N)[nH]3)sc2c1 [MLS001138435],3.11 µM
15,CC(C)c1c(C(=O)NN=Cc2ccoc2)nnn1-c1nonc1N [MLS001139450],> 300 µM
16,CN(Cc1c(C(=O)NN=Cc2ccccc2F)nnn1-c1nonc1N)c1ccccc1 [MLS001141029],> 300 µM
17,CN(Cc1c(C(=O)NN=Cc2cccc(F)c2)nnn1-c1nonc1N)c1ccccc1 [MLS001141039],15.6 µM
18,CN(Cc1c(C(=O)NN=Cc2ccc(O)cc2)nnn1-c1nonc1N)C1CCCCC1 [MLS001142838],0.186 µM
19,CN(Cc1c(C(=O)NN=Cc2cccc(O)c2)nnn1-c1nonc1N)C1CCCCC1 [MLS001142859],0.712 µM
20,CCCCCC(=O)N1CCN(S(=O)(=O)c2ccc3c(c2)OCCCO3)CC1 [MLS001161784],> 300 µM
21,COc1ccc(-c2nn(-c3ccccc3)cc2C=O)cc1[N+](=O)[O-] [MLS001163277],> 300 µM
